Results from patent EP0035868A1, “Bicyclic compounds, their production and use” (Takeda Chemical Industries, Ltd., priority 1980, dated 1981).

How the values were obtained:
[1] = system: Hypertensive Activity of Angiotensin I; assay: Effect against hypertensive activity of angiotensin I in rats, oral administration; format: in vivo, Male rats (Sprague-Dawley); conditions: 13.8 µM/kg orally, angiotensin I 300 ng/kg i.v., corrected by angiotensin II reaction
Description: Male rats (Sprague-Dawley) weighing 250 g to 350 g which were fed under free access to drinking water and feeds were used as experimental animals. The rats were anesthetized with intraperitoneal administration of pentobarbital sodium (50 mg/kg) on the day before the test day and a polyethylene tube was inserted into each of the femoral artery for measurement of blood pressure and the femoral vein for injection of angiotensin I and II, and then the tubes were fixed.
On the test day, an average blood pressure in the control phase was recorded on an electric hemodynamometer (MP-4T model manufactured by Nippon Koden, Japan) and thereafter angiotensin I and then angiotensin II were injected through the femoral vein at a dose of 300 ng/kg and 100 ng/kg respectively, to measure the hypertensive activity. Then, 13.8 µM/kg of the compound of this invention was administered orally as an aqueous solution or an aqueous gum arabic suspension, and 20, 60 and 120 minutes after the administration, angiotensin I and II were injected repeatedly to trace hypertensive reactions. In calculating the percent inhibition to the hypertensive acitivity of angiotensin I, the-percent inhibitory value was corrected based on the variation with time in the hypertensive reaction by angiotensin II.

[2] = target: T1, ACE (angiotensin I converting enzyme) (Oryctolagus cuniculus, UniProt P12822); assay: Inhibition of angiotensin I converting enzyme (HHL substrate, modified Cushman method); format: biochemical; conditions: 37°C, one hour, read-out: Inhibitory Activity on ACE (%); for inhibition at 1 µM: Concentration 1 μM; for inhibition at 10 µM: Concentration 10 μM
T1 sequence (P12822 34-1310): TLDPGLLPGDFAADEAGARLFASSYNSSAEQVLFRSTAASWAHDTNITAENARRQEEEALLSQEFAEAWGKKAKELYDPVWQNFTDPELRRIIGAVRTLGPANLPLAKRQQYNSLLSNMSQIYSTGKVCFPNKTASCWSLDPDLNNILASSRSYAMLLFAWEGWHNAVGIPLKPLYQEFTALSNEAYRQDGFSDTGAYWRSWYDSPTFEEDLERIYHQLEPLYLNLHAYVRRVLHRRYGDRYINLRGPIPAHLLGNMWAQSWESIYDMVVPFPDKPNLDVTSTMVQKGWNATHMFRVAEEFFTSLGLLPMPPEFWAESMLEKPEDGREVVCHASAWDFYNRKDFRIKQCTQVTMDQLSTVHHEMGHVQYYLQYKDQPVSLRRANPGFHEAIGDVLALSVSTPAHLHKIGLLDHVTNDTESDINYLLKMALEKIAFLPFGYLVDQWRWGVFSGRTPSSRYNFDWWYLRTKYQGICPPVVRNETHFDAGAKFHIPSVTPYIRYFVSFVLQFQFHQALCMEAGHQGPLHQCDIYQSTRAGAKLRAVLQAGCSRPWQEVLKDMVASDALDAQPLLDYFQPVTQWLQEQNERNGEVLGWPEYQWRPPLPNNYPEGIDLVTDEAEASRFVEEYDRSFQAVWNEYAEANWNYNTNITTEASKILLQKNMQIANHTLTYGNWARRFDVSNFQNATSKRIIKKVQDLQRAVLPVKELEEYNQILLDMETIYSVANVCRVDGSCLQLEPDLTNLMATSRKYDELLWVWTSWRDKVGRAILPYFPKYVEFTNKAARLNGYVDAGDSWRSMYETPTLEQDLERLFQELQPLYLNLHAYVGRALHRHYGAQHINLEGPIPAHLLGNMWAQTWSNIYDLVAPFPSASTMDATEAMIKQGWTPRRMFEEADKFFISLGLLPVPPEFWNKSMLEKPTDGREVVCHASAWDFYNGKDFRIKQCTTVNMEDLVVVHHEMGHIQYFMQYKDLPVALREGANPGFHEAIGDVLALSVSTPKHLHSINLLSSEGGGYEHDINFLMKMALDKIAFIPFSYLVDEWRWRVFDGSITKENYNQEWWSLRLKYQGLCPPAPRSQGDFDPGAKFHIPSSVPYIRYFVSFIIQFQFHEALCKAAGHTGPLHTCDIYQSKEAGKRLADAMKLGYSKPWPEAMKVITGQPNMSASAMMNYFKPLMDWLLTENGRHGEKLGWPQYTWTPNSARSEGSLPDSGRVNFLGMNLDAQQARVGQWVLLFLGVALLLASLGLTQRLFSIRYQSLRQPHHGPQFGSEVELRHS
Description: The experiment was conducted in accordance with a modification of the method described by Cushman et al. [Biochemical Pharmacology, Vol. 20, pl637(1971)].
That is, using hippuryl-L-histidyl-L-leucine(HHL) as the substrate, the ACE (angiotensin I converting enzyme) inhibitory activity was determined in terms of percent inhibition on the amount of hippuric acid produced by ACE when the present compound was added. A solution of the compound of the present invention dissolved in a 0.02 to 2% dimethyl sulfoxide-500 mM potassium phosphate buffer solution (pH 8.3, containing 300 mM sodium chloride) was added to 100 µl of ACE (protein concentration, 20 mg/ml) and 100 µl of 1.25 mM HHL. In this experiment, a potassium phosphate buffer solution containing dimethyl sulfoxide at a concentration equal to that of the test solution was used as a control. After incubating the solution at 37°C for one hour, 150 µl of 1N hydrochloric acid was added to the solution to terminate the reaction. After 1 ml of ethyl acetate was added, the solution was centrifuged at 3000 r.p.m. for 10 minutes. A 0.5 ml aliquot was separated from the ethyl acetate layer and dried at a temperature below 50°C under nitrogen gas streams. The residue was mixed with 5 ml of 1M aqueous sodium chloride and the mixture was subjected to colorimetry at a wavelength of 228 nm.

`CC(=O)SCC(C)C(=O)N(CC(=O)O)C1Cc2ccccc2C1` (centres unmarked) [Example 35, N-(3-acetylthio-2-methylpropionyl)-N-(2-indanyl)glycine] was tested, and the “Percent Inhibition (%) against Hypertensive Reaction by Angiotensin I” value (“Percent Inhibition (%)” for short) ([1]; After 20 min.) was 100%, the “Percent Inhibition (%)” value ([1]; After 60 min.) was 100% and the “Percent Inhibition (%)” value ([1]; After 120 min.) was 91%.
With `CC(=O)SCC(C)C(=O)N(CC(=O)O)C1CCc2cc3c(cc21)OCO3` (centres unmarked) [Example 9, N-(3-acetylthio-2-methylpropionyl)-N-(5,6-methylenedioxy-I-indanyl)glycine] the “Percent Inhibition (%)” value ([1]; After 20 min.) was 81%, the “Percent Inhibition (%)” value ([1]; After 60 min.) was 78% and the “Percent Inhibition (%)” value ([1]; After 120 min.) was 59%.
In the case of `CC(=O)SCC(C)C(=O)N(CC(=O)O)C1CCc2ccccc2C1` (centres unmarked) [Example 32, N-(3-acetylthio-2-methylpropionyl)-N-(1,2,3,4-tetrahydro-2-naphthyl)glycine], the inhibition at 1 µM [2] is reported as 73% and the inhibition at 10 µM [2] is reported as 95%.
With `CC(=O)SCC(C)C(=O)N(CC(=O)O)C1CCc2ccccc21` (centres unmarked) [Example 3] the “Percent Inhibition (%)” value ([1]; After 20 min.) was 95%, the “Percent Inhibition (%)” value ([1]; After 60 min.) was 90% and the “Percent Inhibition (%)” value ([1]; After 120 min.) was 83%.
Work on `CC(=O)SCCC(=O)N(CC(=O)O)C1Cc2ccccc2C1` [Example 40, N-(3-acetylthiopropionyl)-N-(2-indanyl) glycine] yielded an inhibition at 1 µM [2] of 77% and an inhibition at 10 µM [2] of 92%.
In the case of `CC(=O)SCC(C)C(=O)N(CC(=O)O)C1CCc2cc(O)ccc21` (centres unmarked) [Example 6], the inhibition at 1 µM [2] is reported as 45% and the inhibition at 10 µM [2] is reported as 88%.
In the case of `COc1cc2c(cc1OC)C(N(CC(=O)O)C(=O)C(C)CSC(C)=O)CC2` (centres unmarked) [Example 8, N-(3-Acetylthio-2-methylpropionyl)-N-(5,6-dimethoxy-1-indanyl)glycine], the “Percent Inhibition (%)” value ([1]; After 20 min.) is reported as 86%, the “Percent Inhibition (%)” value ([1]; After 60 min.) is reported as 94% and the “Percent Inhibition (%)” value ([1]; After 120 min.) is reported as 91%.
For `COc1ccc2c(c1OC)CCCC2N(CC(=O)O)C(=O)C(C)CSC(C)=O` (centres unmarked) [Example 18], the “Percent Inhibition (%)” value ([1]; After 20 min.) was 83%, the “Percent Inhibition (%)” value ([1]; After 60 min.) was 70% and the “Percent Inhibition (%)” value ([1]; After 120 min.) was 72%.
With `COc1ccc2c(c1)C(N(CC(=O)O)C(=O)C(C)CSC(C)=O)CC2` (stereo not drawn) [Example 1, N-(3-acetylthio-2-methylpropionyl)-N-(6-methoxy-l-indanyl)-glycine] the “Percent Inhibition (%)” value ([1]; After 20 min.) was 96%, the “Percent Inhibition (%)” value ([1]; After 60 min.) was 94% and the “Percent Inhibition (%)” value ([1]; After 120 min.) was 91%.
With `COc1cc2c(cc1OC)C(N(CC(=O)O)C(=O)C(CSC(C)=O)CSC(C)=O)CC2` (centres unmarked) [Example 43, N-(3-acetylthio-2-acetylthiomethylpropionyl)-N-(5,6-dimethoxy-1-indanyl)glycine] the inhibition at 1 µM [2] was 32% and the inhibition at 10 µM [2] was 75%.
With `COc1cc2c(cc1OC)CC(N(CC(=O)O)C(=O)C(C)CSC(C)=O)C2` (centres unmarked) [Example 41, N-(3-acetylthio-2-methylpropionyl)-N-(5,6-dimethoxy-2-indanyl)glycine] the “Percent Inhibition (%)” value ([1]; After 20 min.) was 89%, the “Percent Inhibition (%)” value ([1]; After 60 min.) was 93% and the “Percent Inhibition (%)” value ([1]; After 120 min.) was 92%.
For `C[C@H](CSC(=O)c1ccccc1)C(=O)N(CC(=O)O)C1Cc2ccccc2C1` [Example 38, N-(3-benzoylthio-2(S)-methylpropionyl)-N-(2-indanyl)glycine], the inhibition at 1 µM [2] was 86% and the inhibition at 10 µM [2] was 98%.
Compound `CC(=O)SCC(C)C(=O)N(CC(=O)O)C1CCOc2ccc(Cl)cc21` (centres unmarked) [Example 21] has an inhibition at 1 µM [2] of 19% and an inhibition at 10 µM [2] of 66%.
Compound `COc1cc2c(cc1OC)C(N(CC(=O)O)C(=O)C(C)CS)CC2` (stereo not drawn) [Example 45, N-(3-mercapto-2-methylpropionyl)-N-(5,6-dimethoxy-l-indanyl)glycine] has an inhibition at 1 µM [2] of 74% and an inhibition at 10 µM [2] of 99%.
